US7470711B2, “Piperidinyl substituted cyclohexane-1,4-diamines” (Janssen Pharmaceutica N.V., priority 2005, dated 2008)
Like-named read-outs stand apart in the source and are kept apart here.

Columns and labels:
α1a-AR = target: T1, α1a-AR (Homo sapiens, UniProt P35348); experiment: α1-Adrenergic receptor radio-ligand binding assay, α1a subtype
T1 construct: expressed in transfected cells; host or cells: COS-7 cells (membranes)
T1 sequence (P35348 1-455 isoform P35348-4): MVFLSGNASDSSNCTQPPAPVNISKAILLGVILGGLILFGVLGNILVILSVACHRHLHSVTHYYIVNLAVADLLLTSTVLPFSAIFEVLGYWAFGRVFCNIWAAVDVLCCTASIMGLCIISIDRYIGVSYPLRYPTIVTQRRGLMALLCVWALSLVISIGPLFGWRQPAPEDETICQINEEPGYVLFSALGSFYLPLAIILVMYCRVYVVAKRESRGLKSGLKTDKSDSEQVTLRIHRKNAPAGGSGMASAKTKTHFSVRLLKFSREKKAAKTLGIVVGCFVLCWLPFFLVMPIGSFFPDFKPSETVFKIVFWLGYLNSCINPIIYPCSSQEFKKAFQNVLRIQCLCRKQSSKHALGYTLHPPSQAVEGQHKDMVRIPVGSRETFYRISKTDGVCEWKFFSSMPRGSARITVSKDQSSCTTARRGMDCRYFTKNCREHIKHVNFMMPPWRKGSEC
Protocol: (§1) Membranes were prepared from COS-7 cells (African Green monkey kidney SV40-transformed cells) that had been transfected with one of the three α1-AR subtypes (Genbank accession number for the α1a subtype: AF013261; Genbank accession number for the α1b subtype: NM000679; Genbank accession number for the α1d subtype: NM000678) using the following method: COS cells from ten 100 mm tissue culture plates were scraped into a 5 mL volume of TE (a mixture of 50 mM Tris-HCl, 5 mM EDTA, pH 7.4). […] The disrupted cells were centrifuged at 1000×g for 10 min at 4° C. Supernatants were centrifuged at 34,500×g for 20 min at 4° C. The membrane pellets were suspended in a 2 mL volume of TNE (a mixture of 50 mM Tris-HCl, 5 mM EDTA and 150 mM NaCl at pH 7.4). An aliquot of the membrane suspension was stored at −70° C. until use. The protein concentration was determined using the BioRad “DC” protein assay kit following membrane solubilization with Triton X-100.
(§2) Triplicate determinations of radio-ligand binding in the presence of increasing concentrations of testing compound were made. The reagents were added to 96-well polypropylene plate wells. […] The plate was incubated at rt for 1 hr. The contents of the wells were filtered through a glass filter (type C) (GF/C) membrane Unifilter plate (Packard Instruments) using the Packard Filtermate cell harvester. The filter plates were dried in a vacuum oven for 30 min at 40° C. 25 μL Microscint 20 liquid scintillation fluid (Packard Instuments) was added to each well. The radioactive content was analyzed in the TopCount microplate scintillation counter (Packard Instruments).

α1b-AR = target: T2, α1b-AR (Homo sapiens, UniProt P35368); experiment: α1-Adrenergic receptor radio-ligand binding assay, α1b subtype; conditions: 125I-HEAT, membranes of COS-7 cells transfected with α1b subtype, rt 1 hr; read-out: Receptor Binding, Ki α1b-AR
T2 construct: expressed in transfected cells; host or cells: COS-7 cells (membranes)
T2 sequence (P35368 1-520): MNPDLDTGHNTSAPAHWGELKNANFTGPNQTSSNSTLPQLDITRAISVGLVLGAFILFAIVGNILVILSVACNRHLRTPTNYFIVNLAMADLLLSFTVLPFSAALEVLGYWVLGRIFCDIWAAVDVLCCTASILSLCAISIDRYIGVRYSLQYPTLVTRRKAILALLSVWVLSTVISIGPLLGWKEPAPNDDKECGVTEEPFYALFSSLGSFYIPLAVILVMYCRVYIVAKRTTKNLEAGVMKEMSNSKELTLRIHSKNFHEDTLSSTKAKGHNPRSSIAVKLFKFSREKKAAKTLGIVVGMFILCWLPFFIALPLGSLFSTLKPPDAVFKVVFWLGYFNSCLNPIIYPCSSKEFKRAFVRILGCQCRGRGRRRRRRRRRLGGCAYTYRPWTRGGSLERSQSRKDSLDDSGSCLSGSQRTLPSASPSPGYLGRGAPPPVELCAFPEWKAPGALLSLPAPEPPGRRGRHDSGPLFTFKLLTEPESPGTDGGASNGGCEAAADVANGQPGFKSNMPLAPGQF
Protocol: as §1, §2

α1d-AR = target: T3, α1d-AR (Homo sapiens, UniProt P25100); experiment: α1-Adrenergic receptor radio-ligand binding assay, α1d subtype; conditions: 125I-HEAT, membranes of COS-7 cells transfected with α1d subtype, rt 1 hr; read-out: Receptor Binding, Ki α1d-AR
T3 construct: expressed in transfected cells; host or cells: COS-7 cells (membranes)
T3 sequence (P25100 1-572): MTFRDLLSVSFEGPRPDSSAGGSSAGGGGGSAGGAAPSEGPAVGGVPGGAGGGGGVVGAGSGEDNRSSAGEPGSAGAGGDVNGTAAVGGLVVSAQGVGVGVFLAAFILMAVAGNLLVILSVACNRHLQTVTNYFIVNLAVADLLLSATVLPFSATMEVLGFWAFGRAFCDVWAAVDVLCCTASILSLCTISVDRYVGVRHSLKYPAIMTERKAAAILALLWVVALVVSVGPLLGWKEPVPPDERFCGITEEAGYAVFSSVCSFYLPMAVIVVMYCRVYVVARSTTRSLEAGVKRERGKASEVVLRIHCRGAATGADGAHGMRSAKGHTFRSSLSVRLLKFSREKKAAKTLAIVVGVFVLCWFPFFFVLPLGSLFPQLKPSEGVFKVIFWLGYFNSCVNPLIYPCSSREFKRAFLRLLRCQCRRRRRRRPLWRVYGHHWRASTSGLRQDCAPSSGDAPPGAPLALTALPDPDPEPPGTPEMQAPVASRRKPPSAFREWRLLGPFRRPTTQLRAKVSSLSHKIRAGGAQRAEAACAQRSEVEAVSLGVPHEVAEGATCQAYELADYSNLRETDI
Protocol: as §1, §2

[1] = tested on: α1a and α1d subtypes over the α1b subtype; conditions: cited from earlier work
BPH patients = conditions: large clinical trials of BPH patients; cited from earlier work
[2] = tested on: normal rats and rats with bladder hypertrophy secondary to outlet obstruction; conditions: intrathecally administered; cited from earlier work

| Compound | Ki (α1b-AR) [nM] | Ki (α1d-AR) [nM] | melting point [°C] | further results |
| --- | --- | --- | --- | --- |
| COc1ccc(S(=O)(=O)N[C@H]2CC[C@@H](N3CCC(c4ccccc4OCC(F)F)CC3)CC2)cc1OC [Cpd 29, N-cis-(4-{4-[2-(2,2-difluoro-ethoxy)-phenyl]-piperidin-1-yl}-cyclohexyl)-3,4-dimethoxy-benzenesulfonamide] | 300 | 4.1 | 219 | Ki (α1a-AR; 125I-HEAT, membranes of COS-7 cells transfected with α1a subtype, rt 1 hr, read-out: Receptor Binding, Ki α1a-AR): 12 nM |
| COc1ccc(S(=O)(=O)N[C@H]2CC[C@H](N3CCC(c4ccccc4OCC(F)F)CC3)CC2)cc1OC [Cpd 30, N-trans-(4-{4-[2-(2,2-difluoro-ethoxy)-phenyl]-piperidin-1-yl}-cyclohexyl)-3,4-dimethoxy-benzenesulfonamide] | 681 | 86 | 197 | Ki (α1a-AR): 30.5 nM |
| CCOc1ccccc1OCCN[C@H](C)Cc1ccc(OC)c(S(N)(=O)=O)c1 [Tamsulosin] | – | – | – | selectivity for the α1a and α1d subtypes over the α1b subtype [1]: about 15 fold; effect on obstructive and irritative symptoms (BPH patients): improvement in both obstructive and irritative symptoms; side effects seen (BPH patients): cardiovascular and erectile dysfunction side effects were seen |
| COc1cc2nc(N3CCN(C(=O)C4COc5ccccc5O4)CC3)nc(N)c2cc1OC (stereo not drawn) [doxazosin] | – | – | – | micturition pressure [2]: decrease in micturition pressure |
